Experimental findings from patent publication US20240228489A1, “POSITIVE ALLOSTERIC MODULATORS OF THE MUSCARINIC ACETYLCHOLINE RECEPTOR M1” (Vanderbilt University, priority 2021, published 2024) are described below.

The target of test [1] is T1, human mAChR M1 (Homo sapiens, UniProt P11229).
T1 sequence (P11229 1-460): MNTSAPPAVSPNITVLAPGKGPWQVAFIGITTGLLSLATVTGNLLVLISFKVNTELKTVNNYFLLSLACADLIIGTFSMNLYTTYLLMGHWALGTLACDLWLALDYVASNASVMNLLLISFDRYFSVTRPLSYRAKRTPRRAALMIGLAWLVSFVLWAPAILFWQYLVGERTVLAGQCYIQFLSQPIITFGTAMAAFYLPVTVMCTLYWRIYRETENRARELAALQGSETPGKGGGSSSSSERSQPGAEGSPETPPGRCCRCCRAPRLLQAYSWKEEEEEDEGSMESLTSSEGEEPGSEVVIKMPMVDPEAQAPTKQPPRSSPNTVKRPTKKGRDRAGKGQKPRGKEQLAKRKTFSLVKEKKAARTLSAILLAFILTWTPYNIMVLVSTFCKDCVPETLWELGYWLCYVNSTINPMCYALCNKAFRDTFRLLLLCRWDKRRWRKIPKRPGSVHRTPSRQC
As to the kind of experiment: mAChR M1 cell-based functional assay (calcium mobilization), agonist mode: compound alone, Emax relative to acetylcholine maximum. To be noted: for Agonist Activity Human M1 EC50 / EC50: human mAChR M1; for Emax: relative to the maximum for acetylcholine. In short, it runs like this:
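CHO-K1 cells stably expressing hM1 were loaded with Fluo-4 AM, and calcium flux was read as fluorescence ratio. Compound was added alone from an 11-point 1:3 curve, and the agonist response was fitted with a four-parameter logistic. Emax is expressed relative to the acetylcholine maximum.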

For test [2], the target named is T1, human mAChR M1. As to the kind of experiment: mAChR M1 cell-based functional assay (calcium mobilization), PAM mode: increase in the EC20 acetylcholine response. In short, it runs like this:
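CHO-K1 cells stably expressing hM1, Fluo-4 loaded, read by FDSS calcium flux at 1 Hz. Compound (11-point 1:3 CRC) added at 4 s, EC20 acetylcholine at 144 s, EC80 at 230 s. PAM activity taken as concentration-dependent increase in EC20 ACh response, fitted by four-parameter logistic for EC50/Emax.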

Some results are limits rather than exact numbers.

One may read the Emax as the size of the effect at its maximum, as opposed to the concentration needed. What is called EC50 is the concentration that produces a half-maximal response. Regarding `[2H]C1([2H])c2ncccc2C(=O)N1Cc1c(F)cc(-c2ccc3nn(C)cc3c2)cc1Cl` [Compound 167, 6-(2-chloro-6-fluoro-4-(2-methyl-2H-indazol-5-yl)benzyl)-6,7-dihydro-5H-pyrrolo[3,4-b]pyridin-5-one-7,7-d2], in test [1], the “Agonist Activity Human M1 EC50” value is on record as “Inactive” and the Emax stood at 2%. In addition, in test [2], the EC50 came out at 256 nM and the Emax is 85%.

With `[2H]C1([2H])c2ncccc2C(=O)N1Cc1ccc(-c2ccc(OCC)c3nn(C)cc23)cc1F` [Compound 108, 6-(4-(7-ethoxy-2-methyl-2H-indazol-4-yl)-2-fluorobenzyl)-6,7-dihydro-5H-pyrrolo[3,4-b]pyridin-5-one-7,7-d2], in test [1], the “Agonist Activity Human M1 EC50” value is on record as “Inactive” and the maximum response (Emax) amounted to 8%. In test [2], the EC50 is 381 nM and the Emax was found to be 74%.

Regarding `[2H]C([2H])([2H])Oc1cnc2c(c1)C(=O)N(Cc1c(F)cc(-c3cccc4nn(C([2H])([2H])[2H])cc34)cc1F)C2([2H])[2H]` [Compound 78, 6-(2,6-difluoro-4-(2-(methyl-d3)-2H-indazol-4-yl)benzyl)-3-(methoxy-d3)-6,7-dihydro-5H-pyrrolo[3,4-b]pyridin-5-one-7,7-d2], in test [1], the “Agonist Activity Human M1 EC50” value is “Inactive” and the maximum response (Emax) was found to be 6%. For the same compound, in test [2], the EC50 worked out at 100 nM and the Emax was 77%.

On to `[2H]C1([2H])c2ncccc2C(=O)N1Cc1c(F)cc(-c2cccc3nn(C)cc23)cc1Cl` [Compound 166, 6-(2-chloro-6-fluoro-4-(2-methyl-2H-indazol-4-yl)benzyl)-6,7-dihydro-5H-pyrrolo[3,4-b]pyridin-5-one-7,7-d2], for which, in test [1], the “Agonist Activity Human M1 EC50” value was “Inactive” and the Emax worked out at 5%. Besides, in test [2], the 50% effective concentration (EC50) came to 318 nM and the Emax turned out to be 82%.

Consider `[2H]C1([2H])c2ncccc2C(=O)N1Cc1c(F)cc(-c2ccc(OC3CC3)c3nn(C)cc23)cc1Cl` [Compound 169, 6-(2-chloro-4-(7-cyclopropoxy-2-methyl-2H-indazol-4-yl)-6-fluorobenzyl)-6,7-dihydro-5H-pyrrolo[3,4-b]pyridin-5-one-7,7-d2], for which, in test [1], the “Agonist Activity Human M1 EC50” value is “Inactive” and the Emax was found to be 7%. For the same compound, in test [2], the EC50 is 630 nM and the maximal response (Emax) is 81%.

On to `[2H]C1([2H])c2ncccc2C(=O)N1Cc1ccc(-c2cc(F)cc3nn(C)cc23)cc1C` [Compound 84, 6-(4-(6-fluoro-2-methyl-2H-indazol-4-yl)-2-methylbenzyl)-6,7-dihydro-5H-pyrrolo[3,4-b]pyridin-5-one-7,7-d2], for which, in test [1], the “Agonist Activity Human M1 EC50” value is listed as “Inactive” and the maximum response (Emax) came to 2%. In test [2], the EC50 was found to be 1240 nM and the Emax was found to be 74%.

Turning to `[2H]C([2H])([2H])Oc1ccc(-c2cc(F)c(CN3C(=O)c4cccnc4C3([2H])[2H])c(F)c2)c2cnn(C([2H])([2H])[2H])c12` [Compound 95, 6-(2,6-difluoro-4-(7-(methoxy-d3)-1-(methyl-d3)-1H-indazol-4-yl)benzyl)-6,7-dihydro-5H-pyrrolo[3,4-b]pyridin-5-one-7,7-d2], in test [1], the “Agonist Activity Human M1 EC50” value is “Inactive” and the Emax is 3%. For the same compound, in test [2], the concentration giving a half-maximal response (EC50) is 1400 nM and the Emax stood at 72%.

Take `[2H]C1([2H])c2ncccc2C(=O)N1Cc1c(F)cc(-c2ccc(C)c3nn(C)cc23)cc1C1CC1` [Compound 204, 6-(2-cyclopropyl-4-(2,7-dimethyl-2H-indazol-4-yl)-6-fluorobenzyl)-6,7-dihydro-5H-pyrrolo[3,4-b]pyridin-5-one-7,7-d2]: in test [1], the concentration for a half-maximal effect (EC50) was 7450 nM and the Emax was 49%. In addition, in test [2], the EC50 is 293 nM and the Emax turned out to be 70%.

Turning to `[2H]C1([2H])c2ncccc2C(=O)N1Cc1ccc(-c2cc3cn(C)nc3cc2C)cc1F` [Compound 26, 6-(4-(2,6-dimethyl-2H-indazol-5-yl)-2-fluorobenzyl)-6,7-dihydro-5H-pyrrolo[3,4-b]pyridin-5-one-7,7-d2], in test [1], the “Agonist Activity Human M1 EC50” value is on record as “Inactive” and the maximal response (Emax) was found to be 3%. For the same compound, in test [2], the EC50 amounted to 7580 nM and the Emax was 58%.

On to `[2H]C1([2H])c2ncccc2C(=O)N1Cc1c(F)cc(-c2ccc(Cl)c3nn(C)cc23)cc1C1CC1` [Compound 206, 6-(4-(7-chloro-2-methyl-2H-indazol-4-yl)-2-cyclopropyl-6-fluorobenzyl)-6,7-dihydro-5H-pyrrolo[3,4-b]pyridin-5-one-7,7-d2], for which the EC50 in test [1] amounted to 9700 nM; in test [2], 335 nM. The Emax was 38% in test [1] and 81% in test [2].

Regarding `[2H]C([2H])([2H])Oc1cc(-c2cc(F)c(CN3C(=O)c4cccnc4C3([2H])[2H])c(F)c2)c2cn(C([2H])([2H])[2H])nc2c1` [Compound 87, 6-(2,6-difluoro-4-(6-(methoxy-d3)-2-(methyl-d3)-2H-indazol-4-yl)benzyl)-6,7-dihydro-5H-pyrrolo[3,4-b]pyridin-5-one-7,7-d2], in test [1], the “Agonist Activity Human M1 EC50” value is on record as “Inactive” and the maximal effect (Emax) came out at 11%. Also, in test [2], the EC50 was 819 nM and the Emax worked out at 69%.

Turning to `[2H]C1([2H])c2ncccc2C(=O)N1Cc1c(C)cc(-c2ccc(OC)c3nn(C)cc23)cc1F` [Compound 195, 6-(2-fluoro-4-(7-methoxy-2-methyl-2H-indazol-4-yl)-6-methylbenzyl)-6,7-dihydro-5H-pyrrolo[3,4-b]pyridin-5-one-7,7-d2], in test [1], the 50% effective concentration (EC50) was found to be 3730 nM and the maximal response (Emax) worked out at 43%. In addition, in test [2], the half-maximal effective concentration (EC50) is 198 nM and the Emax was found to be 79%.

Consider `[2H]C1([2H])c2ncccc2C(=O)N1Cc1c(F)cc(-c2ccc(OC(C)C)c3c2cnn3C([2H])([2H])[2H])cc1F` [Compound 250, 6-(2,6-difluoro-4-(7-isopropoxy-1-(methyl-d3)-1H-indazol-4-yl)benzyl)-6,7-dihydro-5H-pyrrolo[3,4-b]pyridin-5-one-7,7-d2], for which, in test [1], the “Agonist Activity Human M1 EC50” value is given as “Inactive” and the Emax turned out to be 3%. Further, in test [2], the EC50 is above 10000 nM and the maximal response (Emax) came to 51%.

Regarding `[2H]C1([2H])c2ncccc2C(=O)N1Cc1c(F)cc(-c2cc(F)c(Cl)c3c2cnn3C([2H])([2H])[2H])cc1F` [Compound 249, 6-(4-(7-chloro-6-fluoro-1-(methyl-d3)-1H-indazol-4-yl)-2,6-difluorobenzyl)-6,7-dihydro-5H-pyrrolo[3,4-b]pyridin-5-one-7,7-d2], in test [1], the “Agonist Activity Human M1 EC50” value is reported as “Inactive” and the Emax turned out to be 14%. In test [2], the half-maximal effective concentration (EC50) was above 10000 nM and the Emax turned out to be 20%.

As for `[2H]C1([2H])c2ncccc2C(=O)N1Cc1c(F)cc(-c2ccn3ccnc3c2)cc1F` [Compound 5, 6-(2,6-difluoro-4-(imidazo[1,2-a]pyridin-7-yl)benzyl)-6,7-dihydro-5H-pyrrolo[3,4-b]pyridin-5-one-7,7-d2], in test [1], the “Agonist Activity Human M1 EC50” value is listed as “Inactive” and the Emax is 2%. Further, in test [2], the EC50 turned out to be 977 nM and the Emax was 40%.
